These are literature values, as cited in US6262108A, “Medicinal use of cromoglycic acid compounds” (Kyoto Pharmaceutical Industries, Ltd., priority 1997, dated 2001).

Data set [1] deals with contact dermatitis and atopic dermatitis. Conditions: background statement on conventional antiallergic agents; cited from earlier work.
Data set [2] has as its system type IV allergic reaction. Conditions: background statement, postulated, with literature references; cited from earlier work.

Structures can show the parent of a compound that is named as a salt.

Take `O=c1[nH]c2ccccc2n1CCCN1CCN(C(c2ccccc2)c2ccccc2)CC1` [oxatomide]: in data set [1], the “therapeutic effects on contact dermatitis and atopic dermatitis” value (from here on “therapeutic effects”) is “either ineffective or fail to show satisfactory therapeutic effects”. The “type IV allergic reaction-inhibitory action” value in data set [2] was “failure to show a type IV allergic reaction-inhibitory action”.

Regarding `CCOCCn1c(N2CCCN(C)CC2)nc2ccccc21` [emedastine difumarate], in data set [1], the “therapeutic effects” value is recorded as “either ineffective or fail to show satisfactory therapeutic effects”. The “type IV allergic reaction-inhibitory action” value in data set [2] is “failure to show a type IV allergic reaction-inhibitory action”.

Regarding `NC1=NCC2c3ccccc3Cc3ccccc3N12` (stereo not drawn) [epinastine hydrochloride], the “therapeutic effects” value in data set [1] is given as “either ineffective or fail to show satisfactory therapeutic effects”. For the same compound, in data set [2], the “type IV allergic reaction-inhibitory action” value is on record as “failure to show a type IV allergic reaction-inhibitory action”.

With `Cc1ccc2c([nH]c(=O)c3c(=O)cc(C(=O)OCCC(C)C)oc32)c1C` [repirinast], the “therapeutic effects” value in data set [1] was “either ineffective or fail to show satisfactory therapeutic effects”. Also, the “type IV allergic reaction-inhibitory action” value in data set [2] was “failure to show a type IV allergic reaction-inhibitory action”.

For `Cc1cccn2c(=O)c(-c3nnn[nH]3)cnc12` [pemirolast potassium], the “therapeutic effects” value in data set [1] is on record as “either ineffective or fail to show satisfactory therapeutic effects”. The “type IV allergic reaction-inhibitory action” value in data set [2] was “failure to show a type IV allergic reaction-inhibitory action”.

On to `COc1ccc(/C=C/C(=O)Nc2ccccc2C(=O)O)cc1OC` [tranilast], for which the “therapeutic effects” value in data set [1] is listed as “either ineffective or fail to show satisfactory therapeutic effects”. In addition, in data set [2], the “type IV allergic reaction-inhibitory action” value was “failure to show a type IV allergic reaction-inhibitory action”.
